This is an account of results in the supplement of paper PMC11061612.

Test in all cases: combination Emax (second highest fraction inhibited in the dose matrix, 72 h); higher = more inhibition; extreme values may be limits of the assay
Experiment [1] concerns Caov-4 (Ovarian Carcinoma). The gist of the method:
(§1)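 Bliss excess equals the observed combination effect minus the expected value EA + EB − EA·EB, where EA and EB are the effects of each agent alone. Combination Emax is the second-highest inhibition within the matrix. Inhibition was scaled from CellTiter-Glo 2.0 luminescence, with 0 set by vehicle wells and 1 by blank wells, after 72 hours of two-drug dosing of cells plated in 1536-well plates.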

Experiment [2] relates to LU-65 (Non-Small Cell Lung Carcinoma). A digest of the protocol: as §1
The subject of experiment [3] is KARPAS-299 (T-Cell Non-Hodgkin's Lymphoma). The gist of the method:
as §1

Experiment [4] deals with MLMA (Other Blood Carcinomas). A digest of the protocol:
as §1

Experiment [5] relates to NCI-H358 (Lung Adenocarcinoma). A digest of the protocol: as §1
Experiment [6] concerns AMO-1 (Plasma Cell Myeloma). The gist of the method:
as §1

In another experiment the test system is TK10 (Kidney Carcinoma). A digest of the protocol: as §1
A further experiment relates to YH-13 (Glioblastoma). The gist of the method:
as §1

The test system of experiment [7] is EoL-1-cell (Acute Myeloid Leukemia). The gist of the method: as §1
A further experiment concerns EW-24 (Ewing's Sarcoma). A digest of the protocol: as §1

Regarding `C=CCn1c(=O)c2cnc(Nc3ccc(N4CCN(C)CC4)cc3)nc2n1-c1cccc(C(C)(C)O)n1` [AZD1775] + CCc1c2c(nc3ccc(O)cc13)-c1cc3c(c(=O)n1C2)COC(=O)[C@]3(O)CC [SN-38] (first compound max 1 µM, partner max 0.3 µM), the “combination Emax” value in [1] was 0.905; in experiment [2], 0.944; in [3], 0.971; in experiment [4], 0.786; in [5], 0.687; in experiment [6], 0.974. Also, the “combination Emax” value in the experiment with TK10 (Kidney Carcinoma) turned out to be 0.612; in the experiment on YH-13 (Glioblastoma), 0.741; in [7], 1; in the experiment on EW-24 (Ewing's Sarcoma), 0.782.
As for `C=CCn1c(=O)c2cnc(Nc3ccc(N4CCN(C)CC4)cc3)nc2n1-c1cccc(C(C)(C)O)n1` [AZD1775] + Nc1ccn([C@@H]2O[C@H](CO)[C@@H](O)C2(F)F)c(=O)n1 [Gemcitabine] (first compound max 1 µM, partner max 0.3 µM), the “combination Emax” value in experiment [1] was found to be 0.837; in experiment [2], 0.848; in [3] it was 0.976; in [4] it was 0.815; in experiment [5], 0.516; in experiment [6], 0.959. Besides, the “combination Emax” value with TK10 (Kidney Carcinoma) amounted to 0.456; in the experiment on YH-13 (Glioblastoma) it was 0.662; in experiment [7], 1; with EW-24 (Ewing's Sarcoma), 0.658.
In the case of `CN(CCO)CC[C@H](CSc1ccccc1)Nc1ccc(S(=O)(=O)NC(=O)c2ccc(N3CCC([C@@H](O)c4ccccc4-c4ccc(Cl)cc4)CC3)cc2)cc1S(=O)(=O)C(F)(F)F` [AZD4320] + CS(=O)(=O)CCNCc1ccc(-c2ccc3ncnc(Nc4ccc(OCc5cccc(F)c5)c(Cl)c4)c3c2)o1 [Lapatinib] (first compound max 1 µM, 7x7, partner max 10 µM), the “combination Emax” value in [1] is 0.955; in experiment [2], 0.368; in experiment [3], 0.204; in experiment [4], 0.497; in [5] it was 0.629; in experiment [6], 0.926. For the same compound, the “combination Emax” value in the experiment on TK10 (Kidney Carcinoma) came to 0.92; in the experiment with YH-13 (Glioblastoma), 0.603; in experiment [7], 1; in the experiment on EW-24 (Ewing's Sarcoma) it was 0.931.
For `Cc1c2c(nn1C)CSCc1cc(n(C)n1)CSc1cc(c3ccccc3c1)OCCCc1c(C(=O)O)n(C)c3c-2c(Cl)ccc13` [AZD5991] + CC(=O)O[C@H]1C(=O)[C@@]2(C)[C@H]([C@H](OC(=O)c3ccccc3)[C@]3(O)C[C@H](OC(=O)[C@H](O)[C@@H](NC(=O)c4ccccc4)c4ccccc4)C(C)=C1C3(C)C)[C@]1(OC(C)=O)CO[C@@H]1C[C@@H]2O [Paclitaxel] (first compound max 1 µM, 7x7, partner max 3 µM), the “combination Emax” value came to 0.833 in experiment [1]; 0.752 in experiment [2]; 1 in experiment [3]; 0.872 in experiment [4]; 0.818 in experiment [5]; 1 in experiment [6]. The “combination Emax” value worked out at 0.519 with TK10 (Kidney Carcinoma), 0.994 in the experiment on YH-13 (Glioblastoma), 1 in [7] and 0.734 in the experiment with EW-24 (Ewing's Sarcoma).
Regarding `Cc1c2c(nn1C)CSCc1cc(n(C)n1)CSc1cc(c3ccccc3c1)OCCCc1c(C(=O)O)n(C)c3c-2c(Cl)ccc13` [AZD5991] + CS(=O)(=O)CCNCc1ccc(-c2ccc3ncnc(Nc4ccc(OCc5cccc(F)c5)c(Cl)c4)c3c2)o1 [Lapatinib] (first compound max 1 µM, 7x7, partner max 10 µM), the “combination Emax” value in [1] was determined as 0.891; in experiment [2], 0.332; in experiment [3], 0.952; in [4], 0.232; in [5] it was 0.478; in [6], 1. Also, the “combination Emax” value in the experiment on TK10 (Kidney Carcinoma) turned out to be 0.56; with YH-13 (Glioblastoma), 0.186; in experiment [7] it was 1; in the experiment with EW-24 (Ewing's Sarcoma), 0.32.
As to `Cc1c2c(nn1C)CSCc1cc(n(C)n1)CSc1cc(c3ccccc3c1)OCCCc1c(C(=O)O)n(C)c3c-2c(Cl)ccc13` [AZD5991] + Nc1ccn([C@@H]2O[C@H](CO)[C@@H](O)C2(F)F)c(=O)n1 [Gemcitabine] (first compound max 1 µM, 7x7, partner max 0.3 µM), the “combination Emax” value stood at 0.83 in experiment [1]; 0.627 in experiment [2]; 0.979 in [3]; 0.821 in experiment [4]; 0.381 in experiment [5]; 1 in [6]. Also, the “combination Emax” value was 0.346 with TK10 (Kidney Carcinoma), 0.574 in the experiment with YH-13 (Glioblastoma), 1 in experiment [7] and 0.672 with EW-24 (Ewing's Sarcoma).
Consider `C[C@@H]1COCCN1c1cc(C2([S@](C)(=N)=O)CC2)nc(-c2ccnc3[nH]ccc23)n1` [AZD6738] + C1CC(C1)(C(=O)[O-])C(=O)[O-].N.N.[Pt+2] [Carboplatin] (first compound max 10 µM, 7x7, partner max 10 µM), for which the “combination Emax” value is 0.813 in experiment [1]; 0.703 in experiment [2]; 0.926 in [3]; 0.553 in [4]; 0.505 in experiment [5]; 0.88 in [6]. Further, the “combination Emax” value in the experiment on TK10 (Kidney Carcinoma) stood at 0.634; in the experiment on YH-13 (Glioblastoma) it was 0.576; in experiment [7], 0.97; in the experiment on EW-24 (Ewing's Sarcoma), 0.703.
`C[C@@H]1COCCN1c1cc(C2([S@](C)(=N)=O)CC2)nc(-c2ccnc3[nH]ccc23)n1` [AZD6738] + Nc1ccn([C@@H]2O[C@H](CO)[C@@H](O)C2(F)F)c(=O)n1 [Gemcitabine] (first compound max 10 µM, 7x7, partner max 0.3 µM): the “combination Emax” value in [1] came to 0.894; in experiment [2], 0.848; in [3] it was 0.997; in experiment [4] it was 0.794; in experiment [5], 0.733; in experiment [6], 0.967. For the same compound, the “combination Emax” value in the experiment on YH-13 (Glioblastoma) was 0.865; in experiment [7] it was 1; in the experiment with EW-24 (Ewing's Sarcoma), 0.8.
On to `C[C@@H](Nc1cc(F)cc(F)c1)c1cc(C(=O)N(C)C)cc2c(=O)cc(N3CCOCC3)oc12` [AZD8186] + C1CN(CCC1(C(=O)N[C@@H](CCO)C2=CC=C(C=C2)Cl)N)C3=NC=NC4=C3C=CN4 [AZD5363] (first compound max 10 µM, 7x7, partner max 10 µM), for which the “combination Emax” value in experiment [1] amounted to 0.309; in experiment [2], 0.615; in experiment [3], 0.263; in experiment [4], 0.623; in experiment [5], 0.33; in [6], 0.506. Also, the “combination Emax” value in the experiment with TK10 (Kidney Carcinoma) stood at 0.454; with YH-13 (Glioblastoma) it was 0.644; in experiment [7], 0.816; in the experiment with EW-24 (Ewing's Sarcoma), 0.447.
As to `C[C@@H](Nc1cc(F)cc(F)c1)c1cc(C(=O)N(C)C)cc2c(=O)cc(N3CCOCC3)oc12` [AZD8186] + CC(=O)c1c(C)c2cnc(Nc3ccc(N4CCNCC4)cn3)nc2n(C2CCCC2)c1=O [Palbociclib] (first compound max 10 µM, 7x7, partner max 10 µM), the “combination Emax” value in [1] was 0.29; in experiment [2], 0.312; in experiment [3], 0.345; in experiment [4], 0.847; in [5] it was 0.398; in [6], 0.673. Besides, the “combination Emax” value with TK10 (Kidney Carcinoma) amounted to 0.556; with YH-13 (Glioblastoma), 0.692; in experiment [7] it was 0.551; with EW-24 (Ewing's Sarcoma), 0.563.
